Experimental data published in ChEMBL document CHEMBL4007467, “Effects of 6-paradol, an unsaturated ketone from gingers, on cytochrome P450-mediated drug metabolism” (Bioorg Med Chem Lett, 2017).
pIC50: −log10 of the molar value.

Columns and labels:
Type in all cases: ADME
[1] = target: T1, CYP2B6 (Homo sapiens, UniProt P20813); assay: Inhibition of CYP2B6 in human liver microsomes assessed as enzyme-mediated metabolite formation at 0.1 uM using bupropion as substrate incubated for 5 mins followed by NADPH addition measured after 30 mins by LC-MS/MS analysis relative to control; design: scale not given: the % may be the effect or the level left; details: probe bupropion, read-out: Activity
T1 sequence (P20813 whole entry): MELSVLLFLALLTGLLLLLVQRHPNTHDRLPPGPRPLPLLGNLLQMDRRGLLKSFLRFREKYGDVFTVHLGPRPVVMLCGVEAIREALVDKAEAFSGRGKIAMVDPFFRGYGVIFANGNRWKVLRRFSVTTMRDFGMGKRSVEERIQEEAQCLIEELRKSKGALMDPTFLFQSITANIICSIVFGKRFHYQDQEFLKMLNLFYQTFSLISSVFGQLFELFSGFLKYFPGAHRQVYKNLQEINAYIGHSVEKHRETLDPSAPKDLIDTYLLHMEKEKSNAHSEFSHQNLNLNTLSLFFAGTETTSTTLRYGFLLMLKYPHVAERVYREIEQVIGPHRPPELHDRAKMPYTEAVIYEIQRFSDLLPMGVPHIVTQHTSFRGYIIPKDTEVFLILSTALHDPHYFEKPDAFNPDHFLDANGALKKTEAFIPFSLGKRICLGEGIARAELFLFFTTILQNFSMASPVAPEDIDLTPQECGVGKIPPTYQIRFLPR

[2] = target: T2, Cytochrome P450 2B6 (Homo sapiens, UniProt P20813); assay: Inhibition of CYP2B6 in human liver microsomes assessed as enzyme-mediated metabolite formation using bupropion as substrate incubated for 5 mins followed by NADPH addition measured after 30 mins by LC-MS/MS analysis
T2 sequence (P20813 whole entry): T1 sequence (P20813 whole entry)

[3] = target: CYP2C19 (Homo sapiens, UniProt P33261); assay: Inhibition of CYP2C19 in human liver microsomes assessed as enzyme-mediated metabolite formation at 10 uM using (S)-mephenytoin as substrate incubated for 5 mins followed by NADPH addition measured after 30 mins by LC-MS/MS analysis relative to control; design: scale not given: the % may be the effect or the level left; details: probe (S)-mephenytoin, read-out: Activity
[4] = target: T3, Cytochrome P450 2C19 (Homo sapiens, UniProt P33261); assay: Inhibition of CYP2C19 in human liver microsomes assessed as enzyme-mediated metabolite formation using (S)-mephenytoin as substrate incubated for 5 mins followed by NADPH addition measured after 30 mins by LC-MS/MS analysis
[5] = target: T4, CYP3A4 (Homo sapiens, UniProt P08684); assay: Inhibition of CYP3A4 in human liver microsomes assessed as enzyme-mediated metabolite formation at 0.3 uM using midazolam as substrate incubated for 5 mins followed by NADPH addition measured after 30 mins by LC-MS/MS analysis relative to control; design: scale not given: the % may be the effect or the level left; details: probe midazolam, read-out: Activity
[6] = target: T5, CYP2A6 (Homo sapiens, UniProt P11509); assay: Inhibition of CYP2A6 in human liver microsomes assessed as enzyme-mediated metabolite formation at 0.1 uM using coumarin as substrate preincubated for 20 mins followed by substrate addition measured after 30 mins in presence of NADPH by LC-MS/MS analysis relative to control; design: scale not given: the % may be the effect or the level left; details: probe coumarin, read-out: Activity
T5 sequence (P11509 whole entry): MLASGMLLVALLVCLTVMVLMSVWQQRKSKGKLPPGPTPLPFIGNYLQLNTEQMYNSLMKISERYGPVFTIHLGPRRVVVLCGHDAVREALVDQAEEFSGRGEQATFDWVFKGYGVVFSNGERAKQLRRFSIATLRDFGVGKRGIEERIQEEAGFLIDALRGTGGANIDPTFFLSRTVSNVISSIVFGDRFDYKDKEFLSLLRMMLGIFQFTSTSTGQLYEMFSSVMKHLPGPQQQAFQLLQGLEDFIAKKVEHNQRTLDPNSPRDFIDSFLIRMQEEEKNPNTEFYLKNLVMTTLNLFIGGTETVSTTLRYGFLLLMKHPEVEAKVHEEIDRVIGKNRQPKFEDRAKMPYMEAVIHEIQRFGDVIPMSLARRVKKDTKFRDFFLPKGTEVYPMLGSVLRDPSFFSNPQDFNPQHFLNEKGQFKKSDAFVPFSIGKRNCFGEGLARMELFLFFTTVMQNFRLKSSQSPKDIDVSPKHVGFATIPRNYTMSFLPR

[7] = target: T2, Cytochrome P450 2B6; assay: Inhibition of CYP2B6 in human liver microsomes using bupropion as substrate preincubated for 20 mins followed by substrate addition measured after 30 mins in presence of NADPH by LC-MS/MS analysis
[8] = target: T6, CYP2C8 (Homo sapiens, UniProt P10632); assay: Inhibition of CYP2C8 in human liver microsomes assessed as enzyme-mediated metabolite formation at 0.1 uM using paclitaxel as substrate preincubated for 20 mins followed by substrate addition measured after 30 mins in presence of NADPH by LC-MS/MS analysis relative to control; design: scale not given: the % may be the effect or the level left; details: probe paclitaxel, read-out: Activity
T6 sequence (P10632 whole entry): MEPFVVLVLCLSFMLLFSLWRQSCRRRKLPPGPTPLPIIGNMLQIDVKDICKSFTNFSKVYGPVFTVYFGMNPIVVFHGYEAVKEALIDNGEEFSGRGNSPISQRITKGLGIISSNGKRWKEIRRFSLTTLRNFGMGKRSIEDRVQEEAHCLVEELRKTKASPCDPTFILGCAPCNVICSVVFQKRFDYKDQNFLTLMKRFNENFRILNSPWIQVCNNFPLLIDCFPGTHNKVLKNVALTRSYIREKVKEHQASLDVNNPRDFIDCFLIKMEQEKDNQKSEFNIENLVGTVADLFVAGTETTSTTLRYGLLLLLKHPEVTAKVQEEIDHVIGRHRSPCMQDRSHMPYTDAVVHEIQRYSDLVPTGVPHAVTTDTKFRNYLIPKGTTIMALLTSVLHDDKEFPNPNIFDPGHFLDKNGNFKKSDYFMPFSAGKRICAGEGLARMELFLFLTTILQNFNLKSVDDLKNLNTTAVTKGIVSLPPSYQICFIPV

[9] = target: CYP2C9 (Homo sapiens, UniProt P11712); assay: Inhibition of CYP2C9 in human liver microsomes assessed as enzyme-mediated metabolite formation at 0.3 uM using diclofenac as substrate preincubated for 20 mins followed by substrate addition measured after 30 mins in presence of NADPH by LC-MS/MS analysis relative to control; design: scale not given: the % may be the effect or the level left; details: probe diclofenac, read-out: Activity
[10] = target: T4, CYP3A4; assay: Inhibition of CYP3A4 in human liver microsomes assessed as enzyme-mediated metabolite formation at 3 uM using midazolam as substrate preincubated for 20 mins followed by substrate addition measured after 30 mins in presence of NADPH by LC-MS/MS analysis relative to control; design: scale not given: the % may be the effect or the level left; details: probe midazolam, read-out: Activity
[11] = target: T4, CYP3A4; assay: Inhibition of CYP3A4 in human liver microsomes assessed as enzyme-mediated metabolite formation at 3 uM using testosterone as substrate preincubated for 20 mins followed by substrate addition measured after 30 mins in presence of NADPH by LC-MS/MS analysis relative to control; design: scale not given: the % may be the effect or the level left; details: probe testosterone, read-out: Activity
[12] = target: T7, Cytochrome P450 2C8 (Homo sapiens, UniProt P10632); assay: Inhibition of human CYP2C8 using paclitaxel as substrate incubated for 5 mins followed by NADPH addition measured after 30 mins by LC-MS/MS analysis
T7 sequence (P10632 whole entry): T6 sequence (P10632 whole entry)

[13] = target: T3, Cytochrome P450 2C19; assay: Inhibition of human CYP2C19 using (S)-mephenytoin as substrate incubated for 5 mins followed by NADPH addition measured after 30 mins by LC-MS/MS analysis

T3 sequence (P33261 whole entry): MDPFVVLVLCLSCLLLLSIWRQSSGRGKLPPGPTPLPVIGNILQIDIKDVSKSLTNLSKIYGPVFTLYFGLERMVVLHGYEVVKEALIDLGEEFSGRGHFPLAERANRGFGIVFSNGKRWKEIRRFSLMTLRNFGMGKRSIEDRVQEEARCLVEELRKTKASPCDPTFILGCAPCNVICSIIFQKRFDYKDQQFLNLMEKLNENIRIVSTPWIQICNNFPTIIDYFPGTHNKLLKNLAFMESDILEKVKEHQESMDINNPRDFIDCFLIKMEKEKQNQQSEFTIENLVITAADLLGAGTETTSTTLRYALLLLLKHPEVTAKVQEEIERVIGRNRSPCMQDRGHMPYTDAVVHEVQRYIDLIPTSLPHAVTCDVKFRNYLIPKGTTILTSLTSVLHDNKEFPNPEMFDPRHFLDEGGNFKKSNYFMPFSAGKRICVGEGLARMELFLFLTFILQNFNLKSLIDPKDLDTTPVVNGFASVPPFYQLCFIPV
T4 sequence (P08684 whole entry): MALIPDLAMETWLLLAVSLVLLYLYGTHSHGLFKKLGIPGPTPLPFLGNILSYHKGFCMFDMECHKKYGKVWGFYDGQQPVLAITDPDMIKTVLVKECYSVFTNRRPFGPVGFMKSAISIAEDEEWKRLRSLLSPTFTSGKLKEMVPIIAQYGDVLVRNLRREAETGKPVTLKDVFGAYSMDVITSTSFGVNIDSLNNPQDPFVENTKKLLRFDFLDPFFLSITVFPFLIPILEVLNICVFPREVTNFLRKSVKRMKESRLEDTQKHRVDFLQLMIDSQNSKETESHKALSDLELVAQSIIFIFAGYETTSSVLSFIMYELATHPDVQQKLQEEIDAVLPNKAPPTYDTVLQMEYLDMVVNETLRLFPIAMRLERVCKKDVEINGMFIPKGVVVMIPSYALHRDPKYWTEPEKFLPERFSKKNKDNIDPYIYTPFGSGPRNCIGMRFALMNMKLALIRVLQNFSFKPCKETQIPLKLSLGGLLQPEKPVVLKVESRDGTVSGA
Chain of CYP2C19 (P33261 whole entry): as the sequence (P33261 whole entry) above
Chain of CYP2C9 (P11712 whole entry): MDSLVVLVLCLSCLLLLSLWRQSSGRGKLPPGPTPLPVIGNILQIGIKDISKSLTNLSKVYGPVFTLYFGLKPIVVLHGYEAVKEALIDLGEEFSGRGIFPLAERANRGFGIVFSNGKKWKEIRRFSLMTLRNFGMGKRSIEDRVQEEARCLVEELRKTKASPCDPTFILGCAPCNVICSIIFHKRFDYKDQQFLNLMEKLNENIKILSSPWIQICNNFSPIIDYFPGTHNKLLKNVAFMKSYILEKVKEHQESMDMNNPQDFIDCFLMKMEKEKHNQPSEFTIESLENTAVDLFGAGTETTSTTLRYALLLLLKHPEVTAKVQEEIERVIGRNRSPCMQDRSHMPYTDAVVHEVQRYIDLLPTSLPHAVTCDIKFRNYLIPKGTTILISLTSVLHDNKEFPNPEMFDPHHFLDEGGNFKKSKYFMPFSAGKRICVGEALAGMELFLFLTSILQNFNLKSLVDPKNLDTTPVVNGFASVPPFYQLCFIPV

## CCCCCCCC(=O)CCc1ccc(O)c(OC)c1
[1]
  activity at 0.5 h, 0.1 µM: 93.6%
[2]
  pIC50: 4.81
[3]
  activity at 0.5 h, 10 µM: 51.5%
[4]
  pIC50: 4.75
[5]
  activity at 0.5 h, 0.3 µM: 103%
[6]
  activity at 0.5 h, 0.1 µM: 96.5%
[7]
  pIC50: 5.20
[8]
  activity at 0.5 h, 0.1 µM: 83.2%
[9]
  activity at 0.5 h, 0.3 µM: 72.6%
[10]
  activity at 0.5 h, 3 µM: 103%
[11]
  activity at 0.5 h, 3 µM: 95.8%
[12]
  pIC50: 5.42
[12]; human, 0.5 h
  inhibition (INH): Dose-dependent effect
[13]
  pIC50: 5.24
[13]; human, 0.5 h
  inhibition (INH): Dose-dependent effect
